Laboratory results taken from patent US20170368082A1, “FORMULATIONS OF BRINCIDOFOVIR” (priority 2016, published 2017).
Like-named read-outs stand apart in the source and are kept apart here.

Assay: Phase 2 toxicokinetics of brincidofovir and cidofovir in plasma
Type: in vivo, Sprague-Dawley CD rats
Conditions: for Tmax: Sprague-Dawley CD, rat, plasma, iv, read-out: Median Tmax; for AUClast/Dose / Cmax/Dose / Tlast: brincidofovir in plasma, 1 mg/kg 2-hour IV infusion, Female rats
Protocol: Plasma samples (108) were collected 2 hours following the initiation of dosing on Day 1 and Day 7 (Group 1), or at 1, 2, 8, and 24 hours following the initiation of dosing on Day 1, and prior to administration and at 2, 8, and 24 hours following the initiation of dosing on Day 7 (Groups 2 and 3), and analyzed to determine the concentrations of brincidofovir and the metabolite, cidofovir), by LC/MS/MS.
Approximately 0.4 mL of whole blood was obtained via the tail vein from each animal at each time point. Animals were not fasted prior to blood collection. Blood was collected into tubes containing K2EDTA anticoagulant and placed on wet ice in an upright position, per facility SOP prior to processing. Plasma was separated by centrifugation (10 minutes at approximately 2000 g, at approximately 2-8° C.). Approximately 0.10 mL of plasma was transferred into a single cryotube appropriately labeled with study number, animal number, time point, date of sampling and sample type. Remaining plasma was transferred into a second cryotube and retained as a backup sample. Plasma frozen at approximately −80±10° C. within approximately 2 hours after collection of each blood sample until analysis. Animals were euthanized (CO2 inhalation) after the final blood collection.
In general, TK parameters were estimated using mean plasma concentrations of brincidofovir and cidofovir derived from the composite blood sampling design using Phoenix WinNonLin (V 6.3).
A composite blood sampling design was used such that each rat was sampled twice per sampling day. Blood was collected via tail vein from unanesthetized animals into tubes containing anticoagulant and placed on wet ice in an upright position. Animals were not fasted prior to blood collection. Plasma was separated by centrifugation (for 10 minutes at approximately 2000 g, at approximately 2-8° C.), and transferred into individually labeled cryotubes. All cryotubes containing the collected plasma samples were appropriately labeled as to study number, animal number, time point, date of sampling and sample type. All plasma samples were obtained and frozen at approximately −80° C. (±10° C.) within approximately 2 hours after collection of each blood sample until analysis.
Rat plasma bioanalysis was conducted by Pyxant Laboratories. Plasma samples were analyzed for concentrations of brincidofovir and cidofovir using a method based upon protein precipitation extraction followed by LC-MS/MS analysis; calibration ranges for brincidofovir and cidofovir were 1.00-1500 ng/mL and 5.00-750 ng/mL, respectively, (Pyxant study number 3025) for a 50 μL aliquot of rat plasma. Sample analysis for ISR was not performed as part of this non-GLP study.
For the generation of Mean Profiles, all sample concentrations that were below the limit of quantitation (BLQ) were set to 0.
All pharmacokinetic parameter estimates were completed using a Non-Compartmental Model (Model 200-202 for IV infusion administration). The AUClast and AUCinf were calculated using the linear up log down trapezoidal rule.

[1] = brincidofovir 1 mg/kg, Male, Day 1, 1 h
[2] = brincidofovir 1 mg/kg, Male, Day 1, 2 h
[3] = brincidofovir 1 mg/kg, Male, Day 7, 0 h
[4] = brincidofovir 1 mg/kg, Male, Day 7, 2 h
[5] = brincidofovir 15 mg/kg, Female, Day 1, 1 h
[6] = brincidofovir 15 mg/kg, Female, Day 1, 2 h
[7] = brincidofovir 15 mg/kg, Female, Day 1, 8 h
[8] = brincidofovir 15 mg/kg, Female, Day 1, 24 h
[9] = brincidofovir 15 mg/kg, Female, Day 7, 0 h
[10] = brincidofovir 15 mg/kg, Female, Day 7, 2 h
[11] = brincidofovir 15 mg/kg, Female, Day 7, 8 h
[12] = brincidofovir 15 mg/kg, Female, Day 7, 24 h
[13] = brincidofovir 15 mg/kg, Male, Day 1, 1 h
[14] = brincidofovir 15 mg/kg, Male, Day 1, 2 h
[15] = brincidofovir 15 mg/kg, Male, Day 1, 8 h
[16] = brincidofovir 15 mg/kg, Male, Day 7, 0 h
[17] = brincidofovir 15 mg/kg, Male, Day 7, 2 h

With CCCCCCCCCCCCCCCCOCCCOP(=O)(O)CO[C@H](CO)Cn1ccc(N)nc1=O [Brincidofovir] the “Difference in Cmax between female and male” value (1 or 15 mg/kg, Days 1 and 7) was ≤ 54%, the Tmax (1 mg/kg, single and twice weekly 1 mg/kg) was 2 h and the Tmax (15 mg/kg, single 15 mg/kg) was 1 h. For the same molecule, the Tmax (15 mg/kg, twice weekly 15 mg/kg) was 2 h, the “brincidofovir Mean Concentration (MC)” value (brincidofovir 1 mg/kg, Female, Day 7, 24 h) was 0.00 ng/mL and the “brincidofovir Imputed Mean Concentration (IMC)” value [1] was 227 ng/mL. For the same molecule, the “brincidofovir Mean Concentration (MC)” value [1] was 227 ng/mL, the “brincidofovir Imputed Mean Concentration (IMC)” value [2] was 235 ng/mL and the “brincidofovir Mean Concentration (MC)” value [2] was 235 ng/mL. For the same molecule, the “brincidofovir Mean Concentration (MC)” value (brincidofovir 1 mg/kg, Male, Day 1, 8 h) was 0.00 ng/mL, the “brincidofovir Mean Concentration (MC)” value (brincidofovir 1 mg/kg, Male, Day 1, 24 h) was 0.00 ng/mL and the “brincidofovir Imputed Mean Concentration (IMC)” value [3] was 0.00 ng/mL. The “brincidofovir Mean Concentration (MC)” value [3] was 0.00 ng/mL, the “brincidofovir Imputed Mean Concentration (IMC)” value [4] was 208 ng/mL and the “brincidofovir Mean Concentration (MC)” value [4] was 208 ng/mL. For the same molecule, the “brincidofovir Mean Concentration (MC)” value (brincidofovir 1 mg/kg, Male, Day 7, 8 h) was 0.00 ng/mL, the “brincidofovir Mean Concentration (MC)” value (brincidofovir 1 mg/kg, Male, Day 7, 24 h) was 0.00 ng/mL and the “brincidofovir Imputed Mean Concentration (IMC)” value [5] was 3470 ng/mL. For the same molecule, the “brincidofovir Mean Concentration (MC)” value [5] was 3470 ng/mL, the “brincidofovir Imputed Mean Concentration (IMC)” value [6] was 2570 ng/mL and the “brincidofovir Mean Concentration (MC)” value [6] was 2570 ng/mL. The “brincidofovir Imputed Mean Concentration (IMC)” value [7] was 6.53 ng/mL, the “brincidofovir Mean Concentration (MC)” value [7] was 6.53 ng/mL and the “brincidofovir Imputed Mean Concentration (IMC)” value [8] was 2.02 ng/mL. The “brincidofovir Mean Concentration (MC)” value [8] was 2.02 ng/mL, the “brincidofovir Imputed Mean Concentration (IMC)” value [9] was 0.00 ng/mL and the “brincidofovir Mean Concentration (MC)” value [9] was 0.00 ng/mL. The “brincidofovir Imputed Mean Concentration (IMC)” value [10] was 1660 ng/mL, the “brincidofovir Mean Concentration (MC)” value [10] was 1660 ng/mL and the “brincidofovir Imputed Mean Concentration (IMC)” value [11] was 5.45 ng/mL. The “brincidofovir Mean Concentration (MC)” value [11] was 5.45 ng/mL, the “brincidofovir Imputed Mean Concentration (IMC)” value [12] was 0.790 ng/mL and the “brincidofovir Mean Concentration (MC)” value [12] was 0.790 ng/mL. For the same molecule, the “brincidofovir Imputed Mean Concentration (IMC)” value [13] was 4370 ng/mL, the “brincidofovir Mean Concentration (MC)” value [13] was 4370 ng/mL and the “brincidofovir Imputed Mean Concentration (IMC)” value [14] was 2840 ng/mL. The “brincidofovir Mean Concentration (MC)” value [14] was 2840 ng/mL, the “brincidofovir Imputed Mean Concentration (IMC)” value [15] was 9.59 ng/mL and the “brincidofovir Mean Concentration (MC)” value [15] was 9.59 ng/mL. The “brincidofovir Imputed Mean Concentration (IMC)” value [16] was 0.00 ng/mL, the “brincidofovir Mean Concentration (MC)” value [16] was 0.00 ng/mL and the “brincidofovir Imputed Mean Concentration (IMC)” value [17] was 1910 ng/mL. For the same molecule, the “brincidofovir Mean Concentration (MC)” value [17] was 1910 ng/mL, the “brincidofovir Mean Concentration (MC)” value (brincidofovir 15 mg/kg, Male, Day 7, 8 h) was 8.72 ng/mL and the AUClast/Dose (Day 1) was 459 (h*ng/mL)/(mg/kg). The Cmax/Dose (Day 1) was 191 (ng/mL)/(mg/kg), the Tlast (Day 1) was 8 h and the AUClast/Dose (Day 7) was 244 (h*ng/mL)/(mg/kg). For the same molecule, the Cmax/Dose (Day 7) was 95.4 (ng/mL)/(mg/kg) and the Tlast (Day 7) was 8 h.
